Where two headings read alike, the source gives them in different places.
Legend:
[1] = tested on: P-MAPK (ERK1/2) in CSF-1 stimulated bone-marrow derived macrophages; test: Effect of CSF1R inhibitors on MAPK signaling in mouse bone-marrow derived macrophages; format: cell-based; details: fold change relative to PLX3397 (IC50 inhibitor/IC50 PLX3397), P-MAPK/total MAPK, 10 ng/mL CSF-1
CSF1R = CSF1R (Homo sapiens (Human), UniProt P07333); test: CSF1R enzymatic inhibitory assay (Invitrogen Z'-LYTE, FRET); format: biochemical;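 further: kinase phosphorylates a tyrosine on a coumarin/fluorescein FRET peptide, a protease cuts peptide left unphosphorylated, inhibition quantified from the donor-to-acceptor emission ratio with excitation at 400 nm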
[2] = Z'-LYTE assay, ATP concentration equal to Km, average of at least 2 titration curves, read-out: CSF1R (IC50)

Chain of CSF1R (P07333 20-972): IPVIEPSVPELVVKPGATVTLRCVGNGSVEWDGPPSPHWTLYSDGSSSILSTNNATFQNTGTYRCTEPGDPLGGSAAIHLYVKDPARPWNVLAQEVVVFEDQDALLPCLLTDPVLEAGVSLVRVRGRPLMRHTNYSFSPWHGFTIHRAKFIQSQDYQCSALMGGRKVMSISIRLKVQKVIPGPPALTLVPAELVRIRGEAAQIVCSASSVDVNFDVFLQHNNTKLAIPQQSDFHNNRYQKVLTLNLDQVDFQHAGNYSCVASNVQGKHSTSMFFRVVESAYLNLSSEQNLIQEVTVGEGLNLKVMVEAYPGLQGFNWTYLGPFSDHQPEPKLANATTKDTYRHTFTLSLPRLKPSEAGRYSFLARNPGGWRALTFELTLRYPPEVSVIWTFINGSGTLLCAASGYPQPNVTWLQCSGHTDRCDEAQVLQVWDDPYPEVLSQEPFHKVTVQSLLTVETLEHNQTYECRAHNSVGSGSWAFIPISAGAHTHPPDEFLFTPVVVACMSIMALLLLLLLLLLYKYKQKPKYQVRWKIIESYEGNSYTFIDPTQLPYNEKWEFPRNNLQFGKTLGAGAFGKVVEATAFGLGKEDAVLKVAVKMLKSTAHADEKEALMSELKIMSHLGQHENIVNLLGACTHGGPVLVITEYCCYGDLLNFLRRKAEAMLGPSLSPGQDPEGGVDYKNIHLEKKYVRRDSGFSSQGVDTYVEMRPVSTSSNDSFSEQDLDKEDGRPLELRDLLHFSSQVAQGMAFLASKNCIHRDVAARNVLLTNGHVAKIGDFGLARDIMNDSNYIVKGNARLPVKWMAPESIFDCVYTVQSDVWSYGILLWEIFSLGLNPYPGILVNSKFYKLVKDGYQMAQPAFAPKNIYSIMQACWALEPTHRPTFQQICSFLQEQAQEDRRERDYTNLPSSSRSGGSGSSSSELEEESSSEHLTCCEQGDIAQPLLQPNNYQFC

Row | IC50 (CSF1R; [2]) | Compound | MAPK (fold) [1] | IC50 (CSF1R)
1 | 0.3 nM | CN(CC1CCOCC1)c1ncnc2[nH]c(-c3ccc(CO)cc3)nc12 [TIA04-051, N-Methyl-N-(oxan-4-ylmethyl)-8-(4-(hydroxymethyl)phenyl)-9H-purin-6-amine] | 1 fold | –
2 | 8.8 ± 0.3 nM | CN(Cc1ccc(F)cc1)c1ncnc2[nH]c(-c3ccc(CO)cc3)nc12 [TIA02-134, N-Methyl-N-(4-fluorobenzyl)-8-(4-(hydroxymethyl)phenyl)-9H-purin-6-amine] | >3 fold | –
3 | 4.2 ± 1.4 nM | COc1ccccc1CN(C)c1ncnc2[nH]c(-c3ccc(CO)cc3)nc12 [TIA03-106, N-(2-Methoxybenzyl)-N-methyl-8-(4-(hydroxymethyl)phenyl)-9H-purin-6-amine] | >3 fold | –
4 | 2.6 ± 0.3 nM | CN(CC1CCCO1)c1ncnc2[nH]c(-c3ccc(CO)cc3)nc12 (stereo not drawn) [TIA04-093, N-Methyl-N-(tetrahydrofuran-2-ylmethyl)-8-(4-(hydroxymethyl)phenyl)-9H-purin-6-amine] | >3 fold | –
5 | 0.7 nM | CN(CC1CCCCC1)c1ncnc2[nH]c(-c3ccc(CO)cc3)nc12 [TIA03-024, N-Methyl-N-(cyclohexylmethyl)-8-(4-(hydroxymethyl)phenyl)-9H-purin-6-amine] | 0.9 fold | –
6 | 0.2 nM | CN(CC1CCOCC1)c1ncnc2[nH]c(-c3ccc(CCO)cc3)nc12 [TIA05-014, N-Methyl-N-(oxan-4-ylmethyl)-8-(4-(2-hydroxyethyl)phenyl)-9H-purin-6-amine] | 1.7 fold | –
7 | 1.5 ± 0.2 nM | Cc1cccc(CN(C)c2ncnc3[nH]c(-c4ccc(CO)cc4)nc23)c1 [TIA02-172, N-Methyl-N-(3-methylbenzyl)-8-(4-(hydroxymethyl)phenyl)-9H-purin-6-amine] | >5 fold | –
8 | 0.3 nM | CN(CC1CCCCC1)c1ncnc2[nH]c(-c3ccc(CO)cc3)cc12 [TIA05-090, (4-(4-((Cyclohexylmethyl)(methyl)amino)-7H-pyrrolo[2,3-d]pyrimidin-6-yl)phenyl)methanol] | 1.0 fold | –
9 | 1.3 ± 0.2 nM | CN(CC1CCCCO1)c1ncnc2[nH]c(-c3ccc(CO)cc3)nc12 (stereo not drawn) [TIA04-095, N-Methyl-N-(oxan-2-ylmethyl)-8-(4-(hydroxymethyl)phenyl)-9H-purin-6-amine] | >3 fold | –
10 | 1.2 ± 0.2 nM | CN(CC1CCCCC1)c1ncnc2[nH]c(-c3ccc(CN4CCOCC4)cc3)nc12 [TIA04-117, N-(Cyclohexylmethyl)-N-methyl-8-(4-(4-morpholinomethyl)phenyl)-9H-purin-6-amine] | 1.2 fold | –
11 | 4.6 ± 0.6 nM | CN(CC1CCOC1)c1ncnc2[nH]c(-c3ccc(CO)cc3)nc12 (stereo not drawn) [TIA04-049, N-Methyl-N-(tetrahydrofuran-3-ylmethyl)-8-(4-(hydroxymethyl)phenyl)-9H-purin-6-amine] | >3 fold | –
12 | 0.3 ± 0.2 nM | CN(CC1CCCC1)c1ncnc2[nH]c(-c3ccc(CO)cc3)nc12 [TIA03-188, N-Methyl-N-(cyclopentylmethyl)-8-(4-(hydroxymethyl)phenyl)-9H-purin-6-amine] | 0.6 fold | –
13 | 1.2 ± 0.2 nM | CN(Cc1ccccc1)c1ncnc2[nH]c(-c3ccccc3CO)nc12 [JKS02-027, (2-(6-(Benzyl(methyl)amino)-9H-purin-8-yl)phenyl)methanol] | >3 fold | –
14 | – | COc1cccc(CN(C)c2ncnc3[nH]c(-c4ccc(CCC(=O)O)cc4)cc23)c1 [FAB01-23, 3-(4-(4-((3-Methoxybenzyl)(methyl)amino)-7H-pyrrolo[2,3-d]pyrimidin-6-yl)phenyl)propanoic acid] | >5 fold | 0.2 nM
15 | 2.3 ± 0.3 nM | CN(Cc1ccccc1O)c1ncnc2[nH]c(-c3ccc(CO)cc3)nc12 [TIA04-009, N-Methyl-N-(2-hydroxybenzyl)-8-(4-(hydroxymethyl)phenyl)-9H-purin-6-amine] | >3 fold | –
16 | 0.6 nM | COc1ccc(CN(C)c2ncnc3[nH]c(-c4ccc(CCC(=O)O)cc4)cc23)cc1OC [FAB 01-24, 3-(4-(4-((3,4-Dimethoxybenzyl)(methyl)amino)-7H-pyrrolo[2,3-d]pyrimidin-6-yl)phenyl)propanoic acid] | >5 fold | –
17 | 53 ± 4 nM | CN1CCCC(CN(C)c2ncnc3[nH]c(-c4ccc(CO)cc4)nc23)C1 (stereo not drawn) [TIA04-063, N-Methyl-N-(1-methylpiperidin-3-ylmethyl)-8-(4-(hydroxymethyl)phenyl)-9H-purin-6-amine] | >3 fold | –
18 | > 200 nM | Oc1ccc(-c2cc3c(NCc4ccccc4)ncnc3[nH]2)cc1 [JK-367, 4-(4-(Benzylamino)-7H-pyrrolo[2,3-d]pyrimidin-6-yl)phenol] | – | –

Row | Compound | IC50 (CSF1R; [2]) | MAPK (fold) [1] | IC50 (CSF1R)
19 | CN(Cc1ccccc1)c1ncnc2[nH]c(N3CCOCC3)nc12 [TIA04-105, N-Benzyl-N-methyl-8-morpholino-9H-purin-6-amine] | 16 ± 4 nM | >3 fold | –
20 | CN(Cc1cccnc1)c1ncnc2[nH]c(-c3ccc(CO)cc3)nc12 [TIA02-166, N-Methyl-N-(pyridin-3-ylmethyl)-8-(4-(hydroxymethyl)phenyl)-9H-purin-6-amine] | 2.1 ± 0.4 nM | >3 fold | –
21 | Cc1cccc(CN(C)c2ncnc3[nH]c(-c4ccc(C5CCCC(=O)O5)cc4)cc23)c1 (stereo not drawn) [LR-1-124, 6-(4-(4-(Methyl(3-methylbenzyl)amino)-7H-pyrrolo[2,3-d]pyrimidin6-yl)phenyl)tetrahydro-2H-pyran-2-one] | 0.8 ± 0.1 nM | 2.1 fold | –
22 | CC(C)C1CCCN1c1ncnc2[nH]c(-c3ccc(CO)cc3)nc12 (stereo not drawn) [TIA04-065] | 5.4 ± 2.4 nM | >3 fold | –
23 | OCc1ccc(-c2nc3c(N4CCCC4c4ccccc4)ncnc3[nH]2)cc1 (stereo not drawn) [TIA02-176, 8-(4-(Hydroxymethyl)phenyl)-6-(2-phenylpyrrolidin-1-yl)-9H-purine] | 1.9 ± 0.2 nM | >3 fold | –

Reference: patent publication US20250353857A1, “COMPOUND ACTIVE AS INHIBITOR OF COLONY STIMULATION FACTOR-1 RECEPTOR (CSF-1 R)” (priority 2022, published 2025)
